# Laboratory results as given in patent publication US9969742B2, “Imidazotriazinone compounds” (Ironwood Pharmaceuticals, Inc., priority 2012, dated 2018).
# Like-named read-outs stand apart in the source and are kept apart here.
# Tests used:
# Type in all cases: biochemical
# [1] = biological target: T1, PDE1B (Homo sapiens, UniProt Q01064); assay: Phosphodiesterase enzyme screening assay, PDE1B
# T1 construct: purchased Reaction Biology Corporation, Malvern, Pa
# Method in brief: (§1)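 Recombinant enzymes were run in 100 mM HEPES pH 7.5, 5 mM MgCl2, 1 mM DTT, 0.003% Brij with 4.0 μM cGMP substrate, started with cGMP or cAMP, 1 h at RT, and stopped with EDTA. Fluorescent substrate and product were separated by microfluidic mobility shift.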
# [2] = biological target: T2, PDE9A2 (Homo sapiens, UniProt O76083); assay: Phosphodiesterase enzyme screening assay, PDE9A2
# T2 construct: purchased Reaction Biology Corporation, Malvern, Pa
# Method in brief: as §1
# [3] = biological target: T3, PDE1A (Homo sapiens, UniProt P54750); assay: Phosphodiesterase enzyme screening assay, PDE1A
# T3 construct: purchased Reaction Biology Corporation, Malvern, Pa
# Method in brief: as §1
# [4] = ratio of IC50 values PDE1B vs PDE9A2, value greater than 1 indicates greater selectivity for PDE9A2
# [5] = IC50 band, 4.0 μM cGMP substrate, 1 hour at R.T.
# [6] = ratio of IC50 values PDE1A vs PDE9A2, value greater than 1 indicates greater selectivity for PDE9A2
# [7] = 4.0 μM cGMP substrate, 1 hour at R.T., read-out: Band (PDE9A2 IC50)
# [8] = ratio of IC50 values, value greater than 1 indicates greater selectivity for PDE9A2
# [9] = Table 1, ratio of IC50 values, value greater than 1 indicates greater selectivity for PDE9A2
# [10] = Table 1, 10 concentrations, 4.0 μM cGMP substrate, 1 hour at R.T., read-out: Band (PDE9A2 IC50)
# [11] = ratio of IC50 values, PDE1B versus PDE9A2, value greater than 1 indicates greater selectivity for PDE9A2
# [12] = ratio of IC50 values, PDE1A versus PDE9A2, value greater than 1 indicates greater selectivity for PDE9A2
# T1 sequence (Q01064 whole entry): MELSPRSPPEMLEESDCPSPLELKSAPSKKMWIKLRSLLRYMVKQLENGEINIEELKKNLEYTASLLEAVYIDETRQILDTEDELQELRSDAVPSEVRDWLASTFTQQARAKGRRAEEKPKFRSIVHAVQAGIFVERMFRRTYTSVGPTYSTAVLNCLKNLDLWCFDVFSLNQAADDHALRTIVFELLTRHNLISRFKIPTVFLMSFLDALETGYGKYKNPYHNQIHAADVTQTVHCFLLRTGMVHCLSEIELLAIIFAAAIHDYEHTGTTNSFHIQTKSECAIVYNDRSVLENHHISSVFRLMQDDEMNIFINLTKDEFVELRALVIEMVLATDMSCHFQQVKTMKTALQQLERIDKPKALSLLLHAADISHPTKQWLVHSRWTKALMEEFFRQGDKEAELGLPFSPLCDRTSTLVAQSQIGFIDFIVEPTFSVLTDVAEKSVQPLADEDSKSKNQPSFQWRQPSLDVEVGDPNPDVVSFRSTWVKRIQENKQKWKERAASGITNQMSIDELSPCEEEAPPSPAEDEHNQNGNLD
# T3 sequence (P54750 whole entry): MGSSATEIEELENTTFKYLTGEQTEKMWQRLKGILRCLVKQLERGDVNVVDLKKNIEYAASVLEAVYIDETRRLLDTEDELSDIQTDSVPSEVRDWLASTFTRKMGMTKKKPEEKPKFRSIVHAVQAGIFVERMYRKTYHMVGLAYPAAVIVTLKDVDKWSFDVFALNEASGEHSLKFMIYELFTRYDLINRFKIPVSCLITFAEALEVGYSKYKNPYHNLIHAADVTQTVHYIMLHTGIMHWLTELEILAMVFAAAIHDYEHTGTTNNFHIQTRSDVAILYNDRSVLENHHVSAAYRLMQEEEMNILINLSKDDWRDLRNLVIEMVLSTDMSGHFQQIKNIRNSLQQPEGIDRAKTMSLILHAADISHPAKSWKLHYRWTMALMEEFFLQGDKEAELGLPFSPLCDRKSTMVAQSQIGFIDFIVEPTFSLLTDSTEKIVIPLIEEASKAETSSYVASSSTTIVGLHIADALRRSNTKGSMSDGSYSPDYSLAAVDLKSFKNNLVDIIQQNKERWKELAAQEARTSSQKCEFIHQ
# T2 sequence (O76083 1-533 isoform O76083-2): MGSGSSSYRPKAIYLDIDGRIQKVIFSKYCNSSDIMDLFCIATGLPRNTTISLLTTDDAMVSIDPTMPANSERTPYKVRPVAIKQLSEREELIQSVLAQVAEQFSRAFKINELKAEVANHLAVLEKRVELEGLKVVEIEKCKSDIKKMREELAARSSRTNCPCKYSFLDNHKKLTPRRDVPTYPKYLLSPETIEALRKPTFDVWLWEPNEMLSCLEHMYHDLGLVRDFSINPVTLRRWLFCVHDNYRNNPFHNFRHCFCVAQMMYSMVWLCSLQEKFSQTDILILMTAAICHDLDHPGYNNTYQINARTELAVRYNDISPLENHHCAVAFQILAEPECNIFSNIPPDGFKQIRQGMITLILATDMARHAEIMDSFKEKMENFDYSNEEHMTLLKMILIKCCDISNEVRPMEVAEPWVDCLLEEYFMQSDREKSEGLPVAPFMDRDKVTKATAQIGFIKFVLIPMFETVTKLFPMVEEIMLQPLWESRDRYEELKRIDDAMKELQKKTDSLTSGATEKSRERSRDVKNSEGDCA
structure (smiles),measurement,setting,value
"CC1CN(Cc2cnccn2)CC1c1nn2c(C3CCC(F)(F)CC3)ncc2c(=O)[nH]1 (single isomer, unassigned; (+)) [(+)-7-(4,4-difluorocyclohexyl)-2-((3,4-trans)-4-methyl-1-(pyrazin-2-ylmethyl)pyrrolidin-3-yl)imidazo[5,1-f][1,2,4]triazin-4(3H)-one]",PDE1B selectivity (versus PDE9A2),[1]; [4],575
same,IC50,[2]; [5],< 1000 nM
same,PDE1A selectivity (versus PDE9A2),[3]; [6],233
"CC1CN(Cc2c(F)cccc2Cl)CC1c1nn2c(C3CCOCC3)ncc2c(=O)[nH]1 (single isomer, unassigned; (+)) [(+)-2-((3,4-trans)-1-(2-chloro-6-fluorobenzyl)-4-methylpyrrolidin-3-yl)-7-(tetrahydro-2H-pyran-4-yl)imidazo[5,1-f][1,2,4]triazin-4(3H)-one]",PDE1B selectivity (versus PDE9A2),"[1]; ratio of IC50 values PDE1B / PDE9A2, value greater than 1 = greater selectivity for PDE9A2",252
same,IC50,[2]; [7],< 1000 nM
same,PDE1A selectivity (versus PDE9A2),"[3]; ratio of IC50 values PDE1A / PDE9A2, value greater than 1 = greater selectivity for PDE9A2",196
"CC1CN(Cc2ncco2)CC1c1nn2c(C3CCOCC3)ncc2c(=O)[nH]1 (single isomer, unassigned; (+)) [(+)-2-((3,4-trans)-4-methyl-1-(oxazol-2-ylmethyl)pyrrolidin-3-yl)-7-(tetrahydro-2H-pyran-4-yl)imidazo[5,1-f][1,2,4]triazin-4(3H)-one]",PDE1B selectivity (versus PDE9A2),[1]; [8],119
same,IC50,[2]; read-out: Band (PDE9A2 IC50),< 1000 nM
same,PDE1A selectivity (versus PDE9A2),[3]; [8],81
"Cc1ccc(CN2CC(C)C(c3nn4c(C5CCOCC5)ncc4c(=O)[nH]3)C2)cn1 (single isomer, unassigned; (+)) [(+)-2-((3,4-trans)-4-methyl-1-((6-methylpyridin-3-yl)methyl)pyrrolidin-3-yl)-7-(tetrahydro-2H-pyran-4-yl)imidazo[5,1-f][1,2,4]triazin-4(3H)-one]",PDE1B selectivity (versus PDE9A2),[1]; [9],177
same,IC50,[2]; [10],< 1000 nM
same,PDE1A selectivity (versus PDE9A2),[3]; [9],97
"CC1CN(CC2CCN(C(=O)OC(C)(C)C)CC2)CC1c1nn2c(C3CCOCC3)ncc2c(=O)[nH]1 (single isomer, unassigned; (-)) [(−)-tert-butyl (−)-4-(((3,4-trans)-3-methyl-4-(4-oxo-7-(tetrahydro-2H-pyran-4-yl)-3,4-dihydroimidazo[5,1-f][1,2,4]triazin-2-yl)pyrrolidin-1-yl)methyl)piperidine-1-carboxylate]",PDE1B selectivity (versus PDE9A2),[1]; [8],262
same,IC50,[2]; read-out: Band (PDE9A2 IC50),< 1000 nM
same,PDE1A selectivity (versus PDE9A2),[3]; [8],129
"Cc1ncc(CN2CC(C)C(c3nn4c(C5CCOCC5)ncc4c(=O)[nH]3)C2)s1 (single isomer, unassigned; (+)) [(+)-2-((3,4-trans)-4-methyl-1-((2-methylthiazol-5-yl)methyl)pyrrolidin-3-yl)-7-(tetrahydro-2H-pyran-4-yl)imidazo[5,1-f][1,2,4]triazin-4(3H)-one]",PDE1B selectivity (versus PDE9A2),[1]; [9],243
same,IC50,[2]; [10],< 1000 nM
same,PDE1A selectivity (versus PDE9A2),[3]; [9],129
"Cc1ccncc1-c1ncc2c(=O)[nH]c(C3CN(Cc4nc5ccccn5n4)CC3C)nn12 (single isomer, unassigned; (+)) [(+)-2-((3,4-trans)-1-([1,2,4]triazolo[1,5-a]pyridin-2-ylmethyl)-4-methylpyrrolidin-3-yl)-7-(4-methylpyridin-3-yl)imidazo[5,1-f][1,2,4]triazin-4(3H)-one]",PDE1B selectivity (versus PDE9A2),[1]; [11],115
same,IC50,[2]; read-out: Band (PDE9A2 IC50),< 1000 nM
same,PDE1A selectivity (versus PDE9A2),[3]; [12],56
"CC1CN(Cc2ccc(C(F)(F)F)cn2)CC1c1nn2c(C3CCOCC3)ncc2c(=O)[nH]1 (single isomer, unassigned; (+)) [(+)-2-((3,4-trans)-4-methyl-1-((5-(trifluoromethyl)pyridin-2-yl)methyl)pyrrolidin-3-yl)-7-(tetrahydro-2H-pyran-4-yl)imidazo[5,1-f][1,2,4]triazin-4(3H)-one]",PDE1B selectivity (versus PDE9A2),"[1]; ratio of IC50 values, PDE1B versus PDE9A2, value greater than 1 = greater selectivity for PDE9A2",560
same,IC50,"[2]; Table 3, 4.0 μM cGMP substrate, 1 hour at R.T., read-out: Band (PDE9A2 IC50)",< 1000 nM
same,PDE1A selectivity (versus PDE9A2),"[3]; ratio of IC50 values, PDE1A versus PDE9A2, value greater than 1 = greater selectivity for PDE9A2",258
"CC1CN(Cc2ccc3cnccc3c2)CC1c1nn2c(C3CCOCC3)ncc2c(=O)[nH]1 (single isomer, unassigned; (+)) [(+)-2-((3,4-trans)-1-(isoquinolin-6-ylmethyl)-4-methylpyrrolidin-3-yl)-7-(tetrahydro-2H-pyran-4-yl)imidazo[5,1-f][1,2,4]triazin-4(3H)-one]",PDE1B selectivity (versus PDE9A2),[1]; [9],335
same,IC50,[2]; [10],< 1000 nM
same,PDE1A selectivity (versus PDE9A2),[3]; [9],145
"CC1CN(Cc2ccccc2)CC1c1nn2c(-c3ccc(F)cc3)ncc2c(=O)[nH]1 (single isomer, unassigned; (+)) [(+)-2-((3,4-trans)-1-benzyl-4-methylpyrrolidin-3-yl)-7-(4-fluorophenyl)imidazo[5,1-f][1,2,4]triazin-4(3H)-one]",PDE1B selectivity (versus PDE9A2),[1]; [11],286
same,IC50,[2]; read-out: Band (PDE9A2 IC50),< 1000 nM
same,PDE1A selectivity (versus PDE9A2),[3]; [12],220
"COc1cccc(CN2CC(C)C(c3nn4c(C5CCOCC5)ncc4c(=O)[nH]3)C2)c1 (single isomer, unassigned; (+)) [(+)-2-((3,4-trans)-1-(3-methoxybenzyl)-4-methylpyrrolidin-3-yl)-7-(tetrahydro-2H-pyran-4-yl)imidazo[5,1-f][1,2,4]triazin-4(3H)-one]",PDE1B selectivity (versus PDE9A2),[1]; [9],477
same,IC50,[2]; [10],< 1000 nM
same,PDE1A selectivity (versus PDE9A2),[3]; [9],1347
"CC1CN(Cc2cccnc2)CC1c1nn2c(C3CCC(F)(F)CC3)ncc2c(=O)[nH]1 (single isomer, unassigned; (+)) [(+)-7-(4,4-difluorocyclohexyl)-2-((3,4-trans)-4-methyl-1-(pyridin-3-ylmethyl)pyrrolidin-3-yl)imidazo[5,1-f][1,2,4]triazin-4(3H)-one]",PDE1B selectivity (versus PDE9A2),[1]; [4],409
same,IC50,[2]; [5],< 1000 nM
same,PDE1A selectivity (versus PDE9A2),[3]; [6],181
"CC1CN(Cc2cccc(Cl)c2)CC1c1nn2c(C3CCOCC3)ncc2c(=O)[nH]1 (single isomer, unassigned; (+)) [(+)-2-((3,4-trans)-1-(3-chlorobenzyl)-4-methylpyrrolidin-3-yl)-7-(tetrahydro-2H-pyran-4-yl)imidazo[5,1-f][1,2,4]triazin-4(3H)-one]",PDE1B selectivity (versus PDE9A2),[1]; [9],331
same,IC50,[2]; [10],< 1000 nM
same,PDE1A selectivity (versus PDE9A2),[3]; [9],470
"CC1CN(C(=O)c2ccccc2F)CC1c1nn2c(C3CCOCC3)ncc2c(=O)[nH]1 (single isomer, unassigned; (-)) [(−)-2-((3,4-trans)-1-(2-fluorobenzoyl)-4-methylpyrrolidin-3-yl)-7-(tetrahydro-2H-pyran-4-yl)imidazo[5,1-f][1,2,4]triazin-4(3H)-one]",PDE1B selectivity (versus PDE9A2),[1]; [9],7
same,IC50,[2]; [10],< 1000 nM
same,PDE1A selectivity (versus PDE9A2),[3]; [9],9
"Cc1nccc(CN2CC(C)C(c3nn4c(C5CCOCC5)ncc4c(=O)[nH]3)C2)n1 (single isomer, unassigned; (+)) [(+)-2-((3,4-trans)-4-methyl-1-((2-methylpyrimidin-4-yl)methyl)pyrrolidin-3-yl)-7-(tetrahydro-2H-pyran-4-yl)imidazo[5,1-f][1,2,4]triazin-4(3H)-one]",PDE1B selectivity (versus PDE9A2),[1]; [9],400
same,IC50,[2]; [10],< 1000 nM
same,PDE1A selectivity (versus PDE9A2),[3]; [9],184
"Cc1ccc(F)cc1-c1ncc2c(=O)[nH]c(C3CN(Cc4cccnc4)CC3C)nn12 (single isomer, unassigned; (+)) [(+)-7-(5-fluoro-2-methylphenyl)-2-((3,4-trans)-4-methyl-1-(pyridin-3-ylmethyl)pyrrolidin-3-yl)imidazo[5,1-f][1,2,4]triazin-4(3H)-one]",PDE1B selectivity (versus PDE9A2),[1]; [4],505
same,IC50,[2]; [5],< 1000 nM
same,PDE1A selectivity (versus PDE9A2),[3]; [6],770
"Cc1cnccc1-c1ncc2c(=O)[nH]c(C3CN(Cc4cn5ccccc5n4)CC3C)nn12 (single isomer, unassigned; (+)) [(+)-2-((3,4-trans)-1-(imidazo[1,2-a]pyridin-2-ylmethyl)-4-methylpyrrolidin-3-yl)-7-(3-methylpyridin-4-yl)imidazo[5,1-f][1,2,4]triazin-4(3H)-one]",PDE1B selectivity (versus PDE9A2),"[1]; ratio of IC50 values PDE1B / PDE9A2, value greater than 1 indicates greater selectivity for PDE9A2",149
same,IC50,[2]; [7],< 1000 nM
same,PDE1A selectivity (versus PDE9A2),"[3]; ratio of IC50 values PDE1A / PDE9A2, value greater than 1 indicates greater selectivity for PDE9A2",155
"CC1CN(CC2CCC(F)(F)CC2)CC1c1nn2c(C3CCOCC3)ncc2c(=O)[nH]1 (single isomer, unassigned; (+)) [(+)-2-((3,4-trans)-1-((4,4-difluorocyclohexyl)methyl)-4-methylpyrrolidin-3-yl)-7-(tetrahydro-2H-pyran-4-yl)imidazo[5,1-f][1,2,4]triazin-4(3H)-one]",PDE1B selectivity (versus PDE9A2),[1]; [8],68
same,IC50,[2]; read-out: Band (PDE9A2 IC50),< 1000 nM
same,PDE1A selectivity (versus PDE9A2),[3]; [8],51
"CC1CN(Cc2cnc3ccccc3n2)CC1c1nn2c(C3CCOCC3)ncc2c(=O)[nH]1 (single isomer, unassigned; (+)) [(+)-2-((3,4-trans)-4-methyl-1-(quinoxalin-2-ylmethyl)pyrrolidin-3-yl)-7-(tetrahydro-2H-pyran-4-yl)imidazo[5,1-f][1,2,4]triazin-4(3H)-one]",PDE1B selectivity (versus PDE9A2),[1]; [9],1130
same,IC50,[2]; [10],< 1000 nM
same,PDE1A selectivity (versus PDE9A2),[3]; [9],453
